The values below come from patent US6046186A, “Estrone sulfamate inhibitors of estrone sulfatase, and associated pharmaceutical compositions and methods of use” (SRI International, priority 1997, dated 2000).

The target in one assay is T1, Estrone Sulfatase (Homo sapiens, UniProt P08842).
T1 construct: endogenous in cells; host or cells: MCF-7 human breast cancer cells (American Type Culture Collection)
T1 sequence (P08842 22-583): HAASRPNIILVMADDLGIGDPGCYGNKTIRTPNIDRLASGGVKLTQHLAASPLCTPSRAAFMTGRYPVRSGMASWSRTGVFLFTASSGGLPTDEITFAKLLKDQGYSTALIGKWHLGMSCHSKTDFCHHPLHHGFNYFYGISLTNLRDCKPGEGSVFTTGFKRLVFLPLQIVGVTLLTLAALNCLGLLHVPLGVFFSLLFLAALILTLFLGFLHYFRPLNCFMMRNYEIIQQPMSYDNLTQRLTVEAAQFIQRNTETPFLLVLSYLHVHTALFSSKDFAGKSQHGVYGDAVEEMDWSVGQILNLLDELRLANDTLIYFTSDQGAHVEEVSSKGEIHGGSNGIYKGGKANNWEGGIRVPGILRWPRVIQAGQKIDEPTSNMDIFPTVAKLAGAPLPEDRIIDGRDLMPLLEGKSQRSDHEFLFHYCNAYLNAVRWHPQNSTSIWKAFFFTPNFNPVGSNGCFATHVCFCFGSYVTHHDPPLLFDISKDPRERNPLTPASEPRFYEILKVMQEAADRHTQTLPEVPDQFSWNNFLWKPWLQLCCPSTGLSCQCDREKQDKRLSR
The assay is described as follows: Effects of Inhibitors on Estrone Sulfatase Activity in MCF-7 Cells. It counts as cell-based. The source says: A. Effects of Inhibitors on Estrone Sulfatase Activity in MCF-7 Cells
Reagents: MCF-7 human breast cancer cell line was supplied by the American Type Culture Collection, Rockville, MD. Eagle's minimum essential medium (MEM) and fetal calf serum (FCS) were purchased from Sigma Chemical Company, St. Louis, Mo. [4-^14 C]Estrone, [6,7-^3 H]estradiol and [6,7-^3 H](N)estrone sulfate were obtained from New England Nuclear Research Products, Boston, Mass.
Procedure: The method of Duncan et al., Cancer Res. 53:298-303 (1993) was employed. MCF-7 cells were seeded in 60 mm×15 mm culture dishes at 1×10^5 cells/dish and maintained in 4.0 ml of MEM containing 2 mM glutamine and 5% FCS. The cells were incubated at 37° C. in an atmosphere of 5% CO2 /95% air and 100% humidity, with the medium changed every third day. When the cells reached 80% confluency, the intact monolayers were washed once with Earl's balanced salt solution and incubated in 4.0 ml of serum and phenol re-free MEM containing either the substrate (^3 H-estrone sulfate, 7 pmol, 9×10^5 dpm) and inhibitor dissolved in ethanol, or ethanol alone. The fmal ethanol concentration was always below 1%. The incubation continued under the regular conditions for 24 h. At the end of 24 h, 2.0 ml of medium was transferred into separate tubes containing 7×10^3 dpm of ^14 C-estrone. The mixture was vortexed vigorously for 60 s with 5 ml of toluene. After phase separation, 2.0 ml of the organic phase was transferred into a counting vial for scintillation counting. The amount of estrone sulfate hydrolyzed was calculated on the basis of ^3 H counts obtained, with the added ^14 C-estrone counts used to correct for recovery through the extraction procedure.
The cells remaining in each culture dish were washed once with saline and then scraped with 1.0 ml of 0.5 N NaOH into 10×75 mm tubes. The cell pellets in each tube was incubated at 50° C. for 20 min to ensure that digestion was complete and all proteins had became soluble. An aliquot was then taken for protein determination by Lowry's method (Lowry et al., J. Biol. Chem. 193:265-275 (1951)).
The percentage of inhibition was determined by evaluating the quantity of estrone sulfate hydrolyzed with the inhibitor relative to that without the inhibitor.
As a general practice, all available inhibitors were first tested at 100 μM; the ones showing inhibitory effects at that concentration were tested again at various concentrations to obtain the IC50 values.

The subject of a further assay is uterus. As to the kind of experiment: Uterotrophic assay (estrogenic activity from uterine weights). Type of assay: in vivo, Sprague Dawley rats. Further details: scale not given here. The note with it: female rats, test compound alone once daily for 7 days, s.c. or oral gavage; uterine weight vs vehicle control. From the text:
B. Uterotrophic and antiuterotrophic assays
Sprague Dawley rates are obtained from Simmonsen Laboratories, Gilroy, Calif. Estradiol benzoate may be purchased from Sigma Chemical Co., St. Louis, Mo.
The procedure of Wakeling et al., Endocrinology 99:447453 (1983) is followed. Female Sprague Dawley rats weighing 40-50 grams are used for the experiment. In general, animals are quarantined for 3 days after arrival at the experimental site.
Rats are initially weighed and randomly divided into groups with 5 animals in each group. For the uterotrophic assay, animals are dosed once daily with various doses of test compounds in 0.1 or 1.0 ml of sterile saline via subcutaneous injection or oral gavage, respectively. For the antiuterotrophic assay, animals are dosed once daily with the same doses indicated above plus 0.5 μg/rat of estradiol benzoate alone.
The animals are treated for 7 days. On day 8, animals are weighed and then sacrificed. The uterus of each animal is removed immediately after death and weighed; fat materials are trimmed off prior to weighing.
A comparison of uterine weights from the groups receiving test compound alone with those of the vehicle control group gives the estrogenic activity. Antiestrogenic activity is obtained by comparing the uterine weights from the groups receiving test compound plus estradiol with those of the estradiol control group.

[1] abbreviates: intact MCF-7 human breast cancer cells, 3H-estrone sulfate substrate, 24 h, 37° C., read-out: Estrone Sulfatase Inhibitory Activity IC50.

Molecules are shown by their SMILES. Read-outs that look alike come from different tables or passages of the source. Some results are limits rather than exact numbers.

For orientation: IC50 means the concentration at which inhibition is half-maximal. Take `CN(C)Cc1cc2c(cc1OS(N)(=O)=O)CC[C@@H]1[C@@H]2CC[C@]2(C)C(=O)CC[C@@H]12` [Compound 73, 2-Dimethylaminomethylestra-1,3,5(10)-trien-17-one-3-O-sulfamate]: the IC50 at Estrone Sulfatase (setting [1]) is > 1000 nM. Further, the “Estrogenic Activity” value with uterus is 0.
With `COCc1cc2c(cc1OS(N)(=O)=O)CC[C@@H]1[C@@H]2CC[C@]2(C)C(=O)CC[C@@H]12` [Compound 75, 2-Methoxymethylestra-1,3,5(10)-trien-17-one-3-O-sulfamate], the IC50 on Estrone Sulfatase (setting [1]) worked out at 2 nM. Besides, in the assay with uterus, the “Estrogenic Activity” value is listed as 0.
For `C[C@]12CC[C@@H]3c4ccc(OS(N)(=O)=O)c([N+](=O)[O-])c4CC[C@H]3[C@@H]1CCC2=O` [Compound 77, 4-Nitroestra-1,3,5(10)-trien-17-one-3-O-sulfamate] the same measures were < 10 nM and 0.
As to `C[C@]12CC[C@@H]3c4cc([N+](=O)[O-])c(OS(N)(=O)=O)cc4CC[C@H]3[C@@H]1CCC2=O` [Compound 78, 2-Nitroestra-1,3,5(10)-trien-17-one-3-O-sulfamate], the IC50 at Estrone Sulfatase worked out at 7 nM. The “Estrogenic Activity” value in the assay on uterus came to 0.
As for `CN(C)c1cc2c(cc1OS(N)(=O)=O)CC[C@@H]1[C@@H]2CC[C@]2(C)C(=O)CC[C@@H]12` [Compound 83, 2-Dimethylaminoestra-1,3,5(10)-trien-17-one-3-O-sulfamate], the IC50 on Estrone Sulfatase (setting [1]) was 270 nM. In addition, the “Estrogenic Activity” value with uterus was 0.
Taken in the same sequence, the figures for `CN(C)c1c(OS(N)(=O)=O)ccc2c1CC[C@@H]1[C@@H]2CC[C@]2(C)C(=O)CC[C@@H]12` [Compound 88, 4-Dimethylaminoestra-1,3,5(10)-trien-17-one-3-O-sulfamate] were 515 nM and 0.
`CC(=O)Nc1cc2c(cc1OS(N)(=O)=O)CC[C@@H]1[C@@H]2CC[C@]2(C)C(=O)CC[C@@H]12` [Compound 93, 2-Acetoamideestra-1,3,5(10)-trien-17-one-3-O-sulfamate]: the IC50 on Estrone Sulfatase (setting [1]) was found to be 410 nM. Moreover, the “Estrogenic Activity” value in the assay with uterus turned out to be 0.02.
Taken in the same sequence, the figures for `CC(=O)Nc1c(OS(N)(=O)=O)ccc2c1CC[C@@H]1[C@@H]2CC[C@]2(C)C(=O)CC[C@@H]12` [Compound 96, 4-Acetoamideestra-1,3,5(10)-trien-17-one-3-O-sulfamate] were 290 nM and 0.
As to `CC12CC(=O)C3=Cc4ccc(OS(N)(=O)=O)cc4CCC3C1CCC2=O` (stereo not drawn) [Compound 99, β-Homo-9-(10-19)-abeoestra-1,3,5(10),9(19)-tetraen-11,17-dione-3-O-sulfamate], the IC50 at Estrone Sulfatase (setting [1]) is 26 nM. The “Estrogenic Activity” value with uterus came out at 0.
